Measured values reported in publication PMC9112550, “Optimization of the antimicrobial peptide Bac7 by deep mutational scanning” (BMC Biology, 2022).
Where “and” joins values, the source holds several entries; their conditions need not be identical. Identical values can stand only once. Where no end group is shown, it is not given here.

Legend:
E. coli TOP10 [1] = experiment: Membrane damage assay in MHB I (GFP loss, PI uptake); assay type: cell-based; settings: not cation-adjusted, n = 3
Description: For membrane damage assays, the bacterial strain […] [pSEVA271-sfGFP] and the peptide dilutions were prepared as described for the MIC measurements but by scaling all volumes 5-fold and using 96-well plates (polypropylene, U-bottom, 650201, Greiner, Kremsmünster, AT) with a final assay volume of 200 μl. The bacterial strain suspension was furthermore supplemented with a final concentration of 1 μg ml^−1 propidium iodide (PI, from a 1 mg ml^−1 stock in water) just before pipetting the assay. After 1 h incubation at room temperature, the cell membrane integrity was assessed by flow cytometry using a Fortessa Analyzer (BD Biosciences) and appropriate filters for GFP and PI (488-nm laser with 530/30-nm bandpass filter and 579-nm laser with 610/20-nm bandpass filter). […]
Fig. S8 | Membrane damage assay. Membrane damage assays measuring PI uptake of the cells (% cells are given that gained PI fluorescence) and GFP loss (% of the cells are given that lost sfGFP fluorescence) when incubating E. coli TOP10 cells with various peptide concentrations in MHB I (n=3; error bars = 1SD).Fig. S7 | Interactions observed per amino acid residue. For each amino acid residue, the occurrences of interactions at all positions were counted. No antagonistic effect was detected for glutamate and valine residues. No interaction was detected for serine. […]

E. coli ATCC 25922 = assay type: cell-based; settings: E. coli ATCC 25922 quality control strain; MHB II; 18 h, 37°C; averaged (n>3)
Description: (§1) Bacterial cells were grown in cation-adjusted Mueller Hinton Broth (MHB II) overnight to stationary phase. The cultures were then supplemented with 200 g l^−1 glycerol, aliquoted, and frozen at −80°C. […] The purified peptides were thawed and the concentration was determined by RP-HPLC as described before. The peptides were diluted with sterile water to 4-fold the desired assays starting concentration and to a final volume of 50 μl. […] The first well of each MIC dilution series was filled with 20 μl of 2-fold concentrated MHB II, wells 2–11 with 20 μl of MHB II, and well 12 with 40 μl MHB II (sterility control). Next, 20 μl of the peptide dilution was added to the first well, mixed, and a log2-serial dilution was performed from wells 1 to 10 (20 μl transfer volume). Well 11 served as growth control (i.e., no peptide added). In the last step, 20 μl of the bacterial cell suspension was added to wells 1–11 either using the pipetting robot (E. coli TOP10, BW25113, BW25113 ΔsbmA, and ATCC 25922) or by manual pipetting (E. coli clinical isolates). The plates were sealed airtight and incubated for 18 h without shaking at 37°C before reading the OD using an Infinite 200 PRO plate reader (Tecan, Männedorf, CH). The MIC value corresponded to the concentration at which no growth of the bacterial strain was observed (< 5% of the OD value of the growth control) and was evaluated using a custom-written script in the programming language R. MIC values of E. coli TOP10, BW25113, BW25113 ΔsbmA, and ATCC 25922 were determined at least in biological triplicates. All MIC experiments were determined in technical replicate.

E. coli TOP10 [2] = assay type: cell-based
Description: as §1

[3] = tested on: E. coli clinical isolates; assay type: cell-based; settings: clinical isolates of E. coli (n=45) including MDR (ESBL, CRE); MHB II; 18 h, 37°C
Description: as §1

E. coli BW25113 = assay type: cell-based; settings: E. coli BW25113 parental strain; MHB II; 18 h, 37°C; averaged (n>3)
Description: as §1

E. coli BW25113 ΔsbmA = assay type: cell-based; settings: MHB II, 18 h, 37°C, averaged (n>3)
Description: as §1

mouse red blood cells = experiment: Hemolysis assay; assay type: cell-based; settings: 1 h, 37°C, DPBS, relative to Triton-X100 lysis control, triplicates
Description: Mouse blood was obtained from the ETH Phenomics Center. The erythrocytes were isolated by centrifugation at 500 × g for 10 min and removal of the blood plasma. The cells were washed three times by gently resuspending them in an equal volume of DPBS followed by centrifugation. After the last resuspension, the cells were diluted 1:50 in DPBS. For the hemolysis assay, a log2-serial dilution of each peptide was prepared as described for the MIC but using DPBS and 96-well plates (U-bottom, PP, 650201, Greiner) with a final volume of 100 μl. As lysis control, 2.5% Triton-X100 in DPBS was used in well 10, well 11 served as non-treated control (no peptide added), and well 12 as blank. To each well of the dilution plate, 100 μl of the red blood cells suspension was added. The plate was incubated for 1 h at 37°C. After incubation, the plate was centrifuged at 500 × g for 10 min and 100 μl of the supernatant was transferred to a clean 96-well plate (F-bottom, PS, 655101, Greiner). The absorbance was measured at 540 nm using an Infinite M1000 PRO plate reader (Tecan) and corrected by the measurements from the untreated wells. The lysis of each peptide concentration was expressed relative to the lysis control (set as 100% lysis). The hemolysis assay was performed in biological triplicates.

[4] = tested on: HEK 293 cells transfected with a luciferase construct; experiment: Whole cell translation inhibition assay; assay type: cell-based, human; settings: HEK 293 whole-cell assay; 24 h incubation; luminescence; n = 1
Description: HEK293 cells were cultivated in DMEM medium supplemented with 10% fetal bovine serum and transfected with vector pRM-hFluc carrying a Fluc gene under constitutive CMV promotor control using Xfect™ Transfection Reagent (Takara, Japan) according to the manufacturer’s protocol. Transfected cells were seeded into a 24-well plate 6 h post-transfection and pre-incubated overnight prior to addition of peptides in the next morning. Following 24 h of incubation in the presence of the peptides, cells were lysed using Lysis Buffer (Promega) and the luminescence was measured in a white microtiter plate using the FLx800 luminometer (Bio-Tek Instruments, USA).

E. coli ribosomes = settings: S30 extract E. coli ATCC 25922; firefly luciferase mRNA; 800 to 0.08 μM; 1 h, 37°C; n = 9; p = 0.15, Wilcoxon, not significant
Description: To measure inhibition of the E. coli ATCC 29522 ribosome, an S30 extract from E. coli cells was purified. E. coli ATCC 25922 was grown in 2 l of liquid LB medium at 37°C and 160 rpm. Cells were harvested in the logarithmic phase by centrifugation for 30 min at 3500 × g at 4°C. The cell pellet was washed with ice-cold S30 buffer (20 mM Tris-acetate pH 8.2, 60 mM potassium acetate, 14 mM magnesium acetate, and 3 mM β-mercaptoethanol) and pelleted again for 30 min at 3500 × g at 4°C. The resulting cell pellet was shock-frozen in liquid nitrogen and stored at −80°C until further processing. Frozen E. coli cells were thawed on ice and resuspended in four times their volume ice-cold S30 buffer. The resulting cell suspension was lysed by passing it twice through a microfluidizer processor (Microfluidics, Westwood, MA, USA) at 25,000 lb/in^2 and the cell lysate was immediately amended with DTT to a final concentration of 1 mM. The lysate was then centrifuged twice for 30 min at 30,000 × g at 4°C. After each centrifugation cycle, the clear supernatant was carefully decanted and the pellet discarded. Aliquots of S30 extract were shock-frozen in liquid nitrogen and stored at −80°C.
Sealed plates were incubated for 1 h at 37°C and stopped on ice before adding 75 μl of luciferase assay reagent (Promega) to each reaction. […]

RRIRIRPPRLPRPRPRPYFMPRP [Bac7PS]
membrane damage, compared with MHB II (E. coli TOP10 [1]): more pronounced | MIC (E. coli ATCC 25922): 2.6 µM | reduction of the MIC vs Bac7_1-23 (E. coli TOP10 [2]): approximately twofold | MIC (E. coli TOP10 [2]; MHB II, 18 h, 37°C, averaged (n>3), <5% of OD of growth control): 2.1 µM | MIC50 [3]: 2.9 µM | MIC (E. coli BW25113): 3.6 µM | MIC (E. coli BW25113 ΔsbmA): 14.4 µM | Hemolysis of mouse red blood cells (mouse red blood cells; 1xMIC (MIC measured for E. coli ATCC 25922)): < 4% and 3.1% | Hemolysis of mouse red blood cells (mouse red blood cells; 4xMIC (MIC measured for E. coli ATCC 25922)): < 7% and 3.8% | concentration above which increased translational inhibition relative to Bac7_1-23 appeared [4]: above 200 μM | mean increase of activity on E. coli ribosomes (translation inhibition IC50) compared to Bac7_1-23 (E. coli ribosomes): 10%
